{"source": "paper PMC9633586", "about": "(Biochemistry, 2022)", "molecular_target": "Cj1438 (Campylobacter jejuni, UniProt Q0P8H6)", "test": "[…] NMR, formation of S-11", "type": "biochemical", "details": "20 mM MgCl2, 10 mM ATP, 10 mM D-glucuronate, 50 mM HEPES/K+ pH 8.0, 25 °C"}
{"smiles": "N[C@@H](CO)COP(=O)(O)O", "note": "[S-4, S-serinol phosphate]", "values": [{"measurement": "31P NMR, formation of S-11", "value": "Cj1438 catalyzes the formation of compound S-11 using D-glucuronate, MgATP, and S-serinol phosphate (S-4)."}]}
